Patent US20210101874A1, “MICROBIOCIDAL OXADIAZOLE DERIVATIVES” (SYNGENTA PARTICIPATIONS AG, priority 2017, published 2021)

Assays:
[1] = tested on: Puccinia recondita f. sp. Tritici; experiment: Puccinia recondita f. sp. tritici / wheat / leaf disc preventative (brown rust); type: in vivo; details: foliar, 200 ppm in the applied formulation, wheat leaf segments cv. Kanzler, inoculated 1 day after application, compared to untreated, assessed 7 to 9 days after application, read-out: disease control
Description: Leaf disks or leaf segments of various plant species are cut from plants grown in a greenhouse. The cut leaf disks or segments are placed in multiwell plates (24-well format) onto water agar. The leaf disks are sprayed with a test solution before (preventative) or after (curative) inoculation. Compounds to be tested are prepared as DMSO solutions (max. 10 mg/ml) which are diluted to the appropriate concentration with 0.025% Tween20 just before spraying. The inoculated leaf disks or segments are incubated under defined conditions (temperature, relative humidity, light, etc.) according to the respective test system. A single evaluation of disease level is carried out 3 to 14 days after inoculation, depending on the pathosystem. Percent disease control relative to the untreated check leaf disks or segments is then calculated. Wheat leaf segments cv. Kanzler were placed on agar in multiwell plates (24-well format) and sprayed with the formulated test compound diluted in water. The leaf disks were inoculated with a spore suspension of the fungus 1 day after application. The inoculated leaf segments were incubated at 19° C. and 75% relative humidity (rh) under a light regime of 12 hours light/12 hours darkness in a climate cabinet and the activity of a compound was assessed as percent disease control compared to untreated when an appropriate level of disease damage appears in untreated check leaf segments (7 to 9 days after application). The following compounds at 200 ppm in the applied formulation give at least 80% disease control in this test when compared to untreated control leaf disks under the same conditions, which show extensive disease development.

[2] = tested on: Glomerella lagenarium (Colletotrichum lagenarium); experiment: Glomerella lagenarium (Colletotrichum lagenarium) liquid culture / cucumber / preventative (anthracnose); type: cell-based; details: Colletotrichum orbiculare; 20 ppm in the applied formulation; conidia in PDB nutrient broth, 24° C.; 3 to 4 days after application; compared to untreated; read-out: disease control (inhibition of growth measured photometrically)
Description: Mycelia fragments or conidia suspensions of a fungus prepared either freshly from liquid cultures of the fungus or from cryogenic storage, are directly mixed into nutrient broth. DMSO solutions of the test compound (max. 10 mg/ml) are diluted with 0.025% Tween20 by a factor of 50 and 10 µl of this solution is pipetted into a microtiter plate (96-well format). The nutrient broth containing the fungal spores/mycelia fragments is then added to give an end concentration of the tested compound. The test plates are incubated in the dark at 24° C. and 96% relative humidity. The inhibition of fungal growth is determined photometrically after 2 to 7 days, depending on the pathosystem, and percent antifungal activity relative to the untreated check is calculated. Conidia of the fungus from cryogenic storage are directly mixed into nutrient broth (PDB—potato dextrose broth). After placing a (DMSO) solution of test compound into a microtiter plate (96-well format), the nutrient broth containing the fungal spores is added. The test plates are incubated at 24° C. and the inhibition of growth is measured photometrically 3 to 4 days after application. The following compounds at 20 ppm in the applied formulation give at least 80% disease control in this test when compared to untreated control under the same conditions, which show extensive disease development.

Row | SMILES | pest or weed control at 200 ppm [1] | inhibition at 20 ppm [2]
1 | CCN(Cc1ccc(-c2noc(C(F)(F)F)n2)cc1)S(=O)(=O)N1CCCC1 [Compound 1.32, N-ethyl-N-[[4-[5-(trifluoromethyl)-1,2,4-oxadiazol-3-yl]phenyl]methyl] pyrrolidine-1-sulfonamide] | ≥ 80% | ≥ 80%
2 | CCN(Cc1ccc(-c2noc(C(F)(F)F)n2)cc1)S(=O)(=O)CCC(=O)OC [Compound 1.36, methyl 3-[ethyl-[[4-[5-(trifluoromethyl)-1,2,4-oxadiazol-3-yl]phenyl]methyl]sulfamoyl]propanoate] | ≥ 80% | ≥ 80%
3 | CN(Cc1ccc(-c2noc(C(F)(F)F)n2)cc1)S(=O)(=O)N1CCCC1 [Compound 1.44, N-methyl-N-[[4-[5-(trifluoromethyl)-1,2,4-oxadiazol-3-yl]phenyl]methyl] pyrrolidine-1-sulfonamide] | ≥ 80% | ≥ 80%
4 | COC(=O)CCS(=O)(=O)N(C)Cc1ccc(-c2noc(C(F)(F)F)n2)cc1 [Compound 1.48, methyl 3-[methyl-[[4-[5-(trifluoromethyl)-1,2,4-oxadiazol-3-yl]phenyl]methyl]sulfamoyl]propanoate] | ≥ 80% | ≥ 80%
5 | COC(=O)CS(=O)(=O)N(C)Cc1ccc(-c2noc(C(F)(F)F)n2)cc1 [Compound 1.53, methyl 2-[methyl-[[4-[5-(trifluoromethyl)-1,2,4-oxadiazol-3-yl]phenyl]methyl]sulfamoyl]acetate] | ≥ 80% | ≥ 80%
6 | CC(C)S(=O)(=O)N(C)Cc1ccc(-c2noc(C(F)(F)F)n2)cc1 [Compound 1.54, N-methyl-N-[[4-[5-(trifluoromethyl)-1,2,4-oxadiazol-3-yl]phenyl]methyl] propane-2-sulfonamide] | ≥ 80% | ≥ 80%
7 | CCN(Cc1ccc(-c2noc(C(F)(F)F)n2)cc1)S(=O)(=O)Cc1ccccc1 [Compound 1.60, N-ethyl-1-phenyl-N-[[4-[5-(trifluoromethyl)-1,2,4-oxadiazol-3-yl]phenyl]methyl] methanesulfonamide] | ≥ 80% | ≥ 80%
8 | CCCN(Cc1ccc(-c2noc(C(F)(F)F)n2)cc1)S(=O)(=O)c1ccn(C)n1 [Compound 1.65, 1-methyl-N-propyl-N-[[4-[5-(trifluoromethyl)-1,2,4-oxadiazol-3-yl]phenyl]methyl] pyrazole-3-sulfonamide] | ≥ 80% | ≥ 80%
9 | CCCN(Cc1ccc(-c2noc(C(F)(F)F)n2)cc1)S(=O)(=O)N1CCCC1 [Compound 1.68, N-propyl-N-[[4-[5-(trifluoromethyl)-1,2,4-oxadiazol-3-yl]phenyl]methyl] pyrrolidine-1-sulfonamide] | ≥ 80% | ≥ 80%
10 | CCCN(Cc1ccc(-c2noc(C(F)(F)F)n2)cc1)S(=O)(=O)CC1CCOC1 (stereo not shown) [Compound 1.71, N-propyl-1-tetrahydrofuran-3-yl-N-[[4-[5-(trifluoromethyl)-1,2,4-oxadiazol-3-yl]phenyl]methyl] methanesulfonamide] | ≥ 80% | ≥ 80%
11 | CCCN(Cc1ccc(-c2noc(C(F)(F)F)n2)cc1)S(=O)(=O)NC [Compound 1.80, 3-[4-[[methylsulfamoyl (propyl)amino]methyl]phenyl]-5-(trifluoromethyl)-1,2,4-oxadiazole] | ≥ 80% | ≥ 80%
12 | COC(=O)CCS(=O)(=O)N(Cc1ccc(-c2noc(C(F)(F)F)n2)cc1)OC [Compound 1.93, methyl 3-[methoxy-[[4-[5-(trifluoromethyl)-1,2,4-oxadiazol-3-yl]phenyl]methyl]sulfamoyl]propanoate] | ≥ 80% | ≥ 80%
13 | CC(C)N(Cc1ccc(-c2noc(C(F)(F)F)n2)cc1)S(=O)(=O)N1CCCC1 [Compound 1.97, N-isopropyl-N-[[4-[5-(trifluoromethyl)-1,2,4-oxadiazol-3-yl]phenyl]methyl] pyrrolidine-1-sulfonamide] | ≥ 80% | ≥ 80%
14 | CON(Cc1ccc(-c2noc(C(F)(F)F)n2)cn1)S(=O)(=O)c1ccccc1 [Compound 1.111, N-methoxy-N-[[5-[5-(trifluoromethyl)-1,2,4-oxadiazol-3-yl]-2-pyridyl]methyl] benzenesulfonamide] | ≥ 80% | ≥ 80%
15 | C/C=C/S(=O)(=O)NCc1ccc(-c2noc(C(F)(F)F)n2)cc1 [Compound 2.10, (E)-N-[[4-[5-(trifluoromethyl)-1,2,4-oxadiazol-3-yl]phenyl]methyl] prop-1-ene-1-sulfonamide] | ≥ 80% | ≥ 80%
16 | CCCCS(=O)(=O)NCc1ccc(-c2noc(C(F)(F)F)n2)cc1 [Compound 2.12, N-[[4-[5-(trifluoromethyl)-1,2,4-oxadiazol-3-yl]phenyl]methyl] butane-1-sulfonamide] | ≥ 80% | ≥ 80%
17 | O=S(=O)(CCC(F)(F)F)NCc1ccc(-c2noc(C(F)(F)F)n2)c(F)c1 [Compound 2.18, 3,3,3-trifluoro-N-[[3-fluoro-4-[5-(trifluoromethyl)-1,2,4-oxadiazol-3-yl]phenyl]methyl] propane-1-sulfonamide] | ≥ 80% | ≥ 80%
18 | CCCCS(=O)(=O)NCc1ccc(-c2noc(C(F)(F)F)n2)c(F)c1 [Compound 2.22, N-[[3-fluoro-4-[5-(trifluoromethyl)-1,2,4-oxadiazol-3-yl]phenyl]methyl] butane-1-sulfonamide] | ≥ 80% | ≥ 80%
19 | COC(=O)CCS(=O)(=O)NCc1ccc(-c2noc(C(F)(F)F)n2)cc1F [Compound 2.33, methyl 3-[[2-fluoro-4-[5-(trifluoromethyl)-1,2,4-oxadiazol-3-yl]phenyl]methyl-sulfamoyl] propanoate] | ≥ 80% | ≥ 80%
20 | COC(=O)CS(=O)(=O)NCc1ccc(-c2noc(C(F)(F)F)n2)cc1F [Compound 2.37, methyl 2-[[2-fluoro-4-[5-(trifluoromethyl)-1,2,4-oxadiazol-3-yl]phenyl]methyl-sulfamoyl] acetate] | ≥ 80% | ≥ 80%
21 | O=S(=O)(NCc1ccc(-c2noc(C(F)(F)F)n2)c(F)c1)c1ccccc1 [Compound 3.9, N-[[3-fluoro-4-[5-(trifluoromethyl)-1,2,4-oxadiazol-3-yl]phenyl]methyl] benzenesulfonamide] | ≥ 80% | ≥ 80%
22 | Cc1ccc(S(=O)(=O)NCc2ccc(-c3noc(C(F)(F)F)n3)cc2)s1 [Compound 3.11, 5-methyl-N-[[4-[5-(trifluoromethyl)-1,2,4-oxadiazol-3-yl]phenyl]methyl] thiophene-2-sulfonamide] | ≥ 80% | ≥ 80%
23 | O=S(=O)(CC1CC1(Cl)Cl)NCc1ccc(-c2noc(C(F)(F)F)n2)cc1 (stereo not shown) [Compound 3.12, 1-(2,2-dichlorocyclopropyl)-N-[[4-[5-(trifluoromethyl)-1,2,4-oxadiazol-3-yl]phenyl]methyl] methanesulfonamide] | ≥ 80% | ≥ 80%
